Laboratory results as given in patent US20240199590A1, “SOLID FORMS OF A SGC ACTIVATOR” (Boehringer Ingelheim International GmbH, priority 2022, published 2024).

Assays:
Assay type in all cases: physicochemical
[1] = Solid form stability (tendency to convert to a different solid form, high RH)
Experimental: (§1) Water sorption isotherms are determined using a dynamic vapor sorption system (Advantage 1, DVS, London, UKDVS Intrinsic Plus, Surface Measurement Systems, Allentown, PA).
(§2) Approximately 5-10 mg of solid is weighed into a tared aluminum pan. The samples are subjected to 0 to 90% RH stepwise with a step size of […] at 25° C. Equilibration criteria are dm/dt of 0.002% over 5 minutes or 360 minutes at a specified % RH. Each sample is equilibrated at each RH step for at least 60 min, and equilibrium is assumed if weight increase is less than 0.1% within one minute, and the maximum duration on each RH is 6 hours. Therefore, each sample is held at a given RH for 1 to 6 hours depending on how fast the equilibrium is reached
The amorphous of Compound 1 (10 mg) is added to a pan for Dynamic Vapor Sorption analysis. The solid is exposed stepwise from 40 to 95 to 0 to 95 to 0% RH at 25° C. Form III is isolated after completing the stepwise exposures.

[2] = Storage stability of samples of Form I at controlled temperature and relative humidity
Experimental: Samples of Form I were maintained for at least 9 months at 25°, and 60% and at least 6 months at 40° and 75% relative humidity.

[3] = Hygroscopicity (water sorption, dynamic vapor sorption); conditions: compared to the anhydrate (Form I) and monohydrate forms (Form III, Form V)
Experimental: as §1, §2

[4] = at least 6 months at 40° and 75% relative humidity
[5] = at least 9 months at 25°, and 60%

## CCOc1c(C(=O)O)cnn1-c1cccc(-c2cccc(C)c2OCc2ccc3c(c2C)CCN(C2CCOCC2)C3)n1 [Form I]
[1]; compared to the amorphous form
  stability as compared to the amorphous form of Compound 1: improved stability
[2]; [4]
  change in particle sized distribution on storage: no change in particle sized distribution
  changes in Raman spectra on storage: no
  increase in impurity levels on storage: no increase in impurity levels
  increase in water content on storage: no increase in water content
[2]; [5]
  change in particle sized distribution on storage: no change in particle sized distribution
  changes in Raman spectra on storage: no
  increase in impurity levels on storage: no increase in impurity levels
  increase in water content on storage: no increase in water content

## CCOc1c(C(=O)O)cnn1-c1cccc(-c2cccc(C)c2OCc2ccc3c(c2C)CCN(C2CCOCC2)C3)n1 [amorphous form of Compound 1]
[1]; high RH, converting to Form III
  stability of the solid form under high RH: not stable
[3]
  hygroscopicity: higher hygroscopicity
